Reference: ChEMBL document CHEMBL1201862, “PubChem BioAssay data set” (2004)
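How tested: cells in 96-well plates exposed to compound for 48 hours at five concentrations. GI50 = concentration required for 50% inhibition of growth.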 Active and inactive are the calls of the source. No stated cut-off is given here; in the data, active = GI50 up to about 1.1 µM and inactive = higher.

Legend:
Test in all cases: NCI tumour cell line growth inhibition, 48 h
DLD-1 = test system: DLD-1
KM-20L2 = test system: KM-20L2
LXFL 529 = test system: LXFL 529
M19-MEL = test system: M19-MEL
DMS-273 = test system: DMS-273
HOP-18 = test system: HOP-18
RXF 631 = test system: RXF 631
SNB-78 = test system: SNB-78
XF498 = test system: XF498

Structure (SMILES)	GI50 (DLD-1)	GI50 (KM-20L2)	GI50 (LXFL 529)	GI50 (M19-MEL)	GI50 (DMS-273)	GI50 (HOP-18)	GI50 (RXF 631)	GI50 (SNB-78)	GI50 (XF498)
COC(=O)C1(C)NCCc2c1[nH]c1ccccc21 (stereo not drawn)	> 100 µM (inactive)	> 100 µM (inactive)	> 100 µM (inactive)	> 100 µM (inactive)	–	–	–	–	–
C=C1CCC(OC(C)=O)C2(C)C(OC(C)=O)CC3OC3(C)C2C(OC(C)=O)C2C(C)C(=O)OC2C1Cl (stereo not drawn)	> 100 µM (inactive)	> 100 µM (inactive)	> 100 µM (inactive)	> 100 µM (inactive)	> 100 µM (inactive)	> 100 µM (inactive)	> 100 µM (inactive)	> 100 µM (inactive)	> 100 µM (inactive)
Cc1nc2ccccn2c1/N=N/c1ccc(C(=O)NN)cc1	52.4 µM (inactive)	92.9 µM (inactive)	38.5 µM (inactive)	> 100 µM (inactive)	–	70.6 µM (inactive)	31.7 µM (inactive)	> 100 µM (inactive)	75 µM (inactive)
CN(C)C(=N)c1ccccc1	–	> 100 µM (inactive)	> 100 µM (inactive)	> 100 µM (inactive)	> 100 µM (inactive)	–	–	> 100 µM (inactive)	> 100 µM (inactive)
COC(=O)C1CC2CC(=NNC(N)=O)CC2C1 (stereo not drawn)	> 100 µM (inactive)	–	> 100 µM (inactive)	> 100 µM (inactive)	> 100 µM (inactive)	–	–	> 100 µM (inactive)	> 100 µM (inactive)
CCc1ccccc1N1C(=O)C(=O)C(c2nc3ccccc3s2)C(=O)C1=O	43.2 µM (inactive)	> 100 µM (inactive)	75.7 µM (inactive)	> 100 µM (inactive)	–	> 100 µM (inactive)	44.3 µM (inactive)	> 100 µM (inactive)	> 100 µM (inactive)
C[C@]12CCC(=O)C(OC(=O)c3ccc([N+](=O)[O-])cc3)=C1CCC2=O	> 100 µM (inactive)	> 100 µM (inactive)	> 100 µM (inactive)	> 100 µM (inactive)	> 100 µM (inactive)	> 100 µM (inactive)	–	> 100 µM (inactive)	–
COC(=O)CCC(NC(=S)N/N=C(\C)c1cnccn1)C(=O)OC (stereo not drawn)	48 µM (inactive)	38.6 µM (inactive)	57.7 µM (inactive)	39.5 µM (inactive)	–	56.1 µM (inactive)	73.5 µM (inactive)	> 100 µM (inactive)	> 100 µM (inactive)
CC1=C(C(=O)Nc2ccccc2C)C(c2ccc(C3C(C(=O)Nc4ccccc4C)=C(C)NC(C)=C3C(=O)Nc3ccccc3C)cc2)C(C(=O)Nc2ccccc2C)=C(C)N1	2.27 µM (inactive)	3.74 µM (inactive)	2.84 µM (inactive)	3.83 µM (inactive)	3.16 µM (inactive)	–	12.8 µM (inactive)	4.16 µM (inactive)	15.8 µM (inactive)
N#CC(C#N)=c1ccc(=C2N3CCCC3CN2C23CC4CC(CC(C4)C2)C3)cc1 (stereo not drawn)	> 100 µM (inactive)	> 100 µM (inactive)	> 100 µM (inactive)	> 100 µM (inactive)	> 100 µM (inactive)	> 100 µM (inactive)	–	> 100 µM (inactive)	–
Cc1ccc(S(=O)(=O)N/N=C2\C(=O)C3CC2C(Cl)C3Cl)cc1 (stereo not drawn)	> 100 µM (inactive)	> 100 µM (inactive)	> 100 µM (inactive)	–	> 100 µM (inactive)	> 100 µM (inactive)	> 100 µM (inactive)	–	–
C[n+]1c2ccccc2c(CNC(CS)C(=O)O)c2ccccc21 (stereo not drawn)	24.6 µM (inactive)	20.4 µM (inactive)	32.4 µM (inactive)	27.7 µM (inactive)	18.5 µM (inactive)	49.1 µM (inactive)	24.9 µM (inactive)	34.3 µM (inactive)	24.3 µM (inactive)
CCC12C=C(C(=O)OC)N3c4ccccc4C4CCN(CCC1)C2C43 (stereo not drawn)	66.7 µM (inactive)	19.1 µM (inactive)	87.1 µM (inactive)	75.9 µM (inactive)	59.6 µM (inactive)	> 100 µM (inactive)	–	> 100 µM (inactive)	–
NC(=O)C(=O)Cc1nc2ccccc2s1	–	> 100 µM (inactive)	> 100 µM (inactive)	> 100 µM (inactive)	–	> 100 µM (inactive)	–	> 100 µM (inactive)	> 100 µM (inactive)
O=C(Nc1ccccc1C(=O)O)C(=O)C(C(=O)c1ccccc1-c1ccccc1)C1OC(=O)c2ccccc21 (stereo not drawn)	23.5 µM (inactive)	22 µM (inactive)	14.7 µM (inactive)	21.1 µM (inactive)	26.5 µM (inactive)	12.6 µM (inactive)	–	> 100 µM (inactive)	10.3 µM (inactive)
CC1=N/C(=C\c2cccc3ccccc23)C(=O)O1	> 100 µM (inactive)	> 100 µM (inactive)	> 100 µM (inactive)	> 100 µM (inactive)	–	10.6 µM (inactive)	> 100 µM (inactive)	> 100 µM (inactive)	–
O=C(CC1Sc2ccccc2NC1=O)Nc1ccc([N+](=O)[O-])cc1[N+](=O)[O-] (stereo not drawn)	15.3 µM (inactive)	26.7 µM (inactive)	15.3 µM (inactive)	16.1 µM (inactive)	–	3.39 µM (inactive)	17.1 µM (inactive)	21.2 µM (inactive)	–
CC(C)(C)c1ccnc(/N=C2\N/C(=N\c3cc(C(C)(C)C)ccn3)c3ccccc32)c1	21.9 µM (inactive)	13.9 µM (inactive)	41.9 µM (inactive)	33.1 µM (inactive)	> 10 µM (inactive)	18.3 µM (inactive)	–	19.9 µM (inactive)	15.5 µM (inactive)
CC1(C)C2CCC13CS(=O)(=O)N1O[C@]13C(=O)O2 (stereo partly drawn)	> 100 µM (inactive)	> 100 µM (inactive)	> 100 µM (inactive)	> 100 µM (inactive)	–	> 100 µM (inactive)	> 100 µM (inactive)	> 100 µM (inactive)	–
COc1ccc2nc3cc(Cl)ccc3c(NC(C)CCCN(CCCl)CCCl)c2c1 (stereo not drawn)	0.524 µM (active)	0.356 µM (active)	0.439 µM (active)	0.598 µM (active)	0.109 µM (active)	–	–	0.622 µM (active)	0.333 µM (active)
